One compound from patent publication US4205077A, “Benzimidazole sulphides as anthelmintic agents” (Ciba-Geigy Corporation, priority 1977, dated 1980) can be followed below.

Data set [1] in a line: in vivo. The settings on record: rat, po.
Data set [2] in a line: Acute toxicity in rats. The settings on record: rat, in vivo, topical or ocular.
The nature of data set [3]: Acute toxicity in rabbits. Particulars: rabbit, in vivo, oral.

In general, LD50 refers to the dose at which mortality reaches 50%. Read a low LD50 as greater toxicity. With `S=c1[nH]c2cc(Cl)c(Oc3ccc(Cl)cc3Cl)cc2[nH]1` [Example 1/2, 5-chloro-6-(2',4'-dichlorophenoxy)-2H-1,3-dihydro-benzimidazole-2-thione], the median lethal dose (LD50) in data set [1] is 3100 mg/kg; in data set [2], more than 3000 mg/kg; in data set [3] it was more than 6000 mg/kg.
